Non-standard residues stand in square brackets, D forms with d. Primed or numbered codes have the meaning given here. No end group written: not given here. PEG12(3) = not defined here
How the values were obtained:
3T3-L1 adipocytes = experiment: Free fatty acid levels in cultured 3T3-L1 mouse adipocytes (Example 4, 25 μM); conditions: for Free Fatty Acid Levels, Percent of Control Value: peptide 25 μM, 20-22 h then 3 h with isoproterenol 1 nM, relative to isoproterenol control
Procedure: Mouse 3T3-L1 adipocytes were seeded at 3,000 cells per well in 96-well plates in Pre-adipocyte Medium (Zen-Bio, Durham, N.C.) and grown to confluence at 37° C. in a humidified atmosphere of 5% CO2/95% air. Two days after confluence, cells were placed in Adipocyte Differentiation Medium (Zen-Bio, Durham, N.C.) and cultured for three additional days at 37° C. in a humidified atmosphere of 5% CO2/95% air. The culture media was then replaced with Adipocyte Maintenance Medium (Zen-Bio) and the cells maintained for an additional 9-12 days at 37° C. in a humidified atmosphere of 5% CO2/95% air with partial medium replacement every other day. Following 12-15 days' differentiation, test peptides were added to a final concentration of 25 μM and incubated for 20-22 hours in Adipocyte Maintenance Medium. After 20-22 hours, isoproterenol (1 nM) was added to all wells except untreated controls and test peptides were replenished. Cells were incubated for a further 3 hours in Assay Buffer (Zen-Bio). Free fatty acid concentrations in the media were determined using a Free Fatty Acid Assay Kit (Zen-Bio) according to the manufacturer's instructions using a plate reader (540 nm). Absorbance values were corrected for untreated background and expressed relative to isoproterenol treated cells. Treatment with isoproterenol (1 nM) alone was used as the free fatty acid level stimulatory control.

Male DIO mice = experiment: Metabolic parameters in diet induced obese (DIO) mice, Example 20; assay type: in vivo, mouse; conditions: N = 8
Procedure: Male C57BL/6 mice were maintained on a high fat diet for 18 weeks to develop diet induced obesity. Animals were randomized to treatment groups based on blood glucose levels and body weight. The peptides of the invention were administered to groups of male DIO mice once or twice daily by intraperitoneal injection at a dose of 5 mg/kg/dose for 8 to 10 days (N=8 animals per treatment group). Additional groups of male DIO mice (n=8) received vehicle (water) alone administered once or twice daily by intraperitoneal injection. Body weight, blood glucose levels and food intake were monitored. Body mass distribution (fat vs lean) was determined by quantitative whole body NMR prior to dosing and at the end of dosing.

C2C12 cells = experiment: Caspase 3/7 activity in C2C12 cells; assay type: cell-based, mouse; conditions: staurosporine 100 nM, positive control
Procedure: The effect of the peptides on cell death/survival can be assessed using a caspase-3/7 assay in cultured cells such as mouse myoblast cells. Peptides were initially prepared as 10 mM stock in DMSO, diluted to 1 mM in H2O, and used at a final concentration of 10 μM (0.1% DMSO). […] Staurosporine (Abcam, Cambridge, Mass.) was dissolved at 10 mM in DMSO as a stock solution. Caspase-Glo 3/7 Assay Reagent was purchased from Promega (Madison, Wis.). C2C12 cell line was purchased from American Type Culture Collection (Manassas, Va.). C2C12 cells were grown in DMEM supplemented with 20% FBS with 100 IU/ml penicillin and 100 μg/ml streptomycin. […] C2C12 cells were seeded at 4,000 cells per well on 96-well plates. […] Caspase 3/7 activity was determined using a Caspase-Glo 3/7 Assay kit according to the manufacturer's instructions. Luminescence for each sample well on the plate was measured using a Cytation 3 plate reader (BioTek, Winooski, Vt.). Activity was calculated relative to 0.1% DMSO control.

MDA-MB-231 cells [1] = experiment: Caspase 3/7 activity in MDA-MB-231 cells (Caspase-Glo 3/7); assay type: cell-based, human
Procedure: The effect of the peptides on cell death/survival can be assessed using a caspase-3 assay. Peptides were dissolved with DMSO at 10 mM stock. […] Staurosporine (Selleckchem) was dissolved with DMSO at 1 mM stock. Caspase-Glo 3/7 Assay Reagent was purchased from Promega (Madison, Wis.). MDA-MB-231 human breast cancer cell line was purchased from American Type Culture Collection (Manassas, Va.). MDA-MB-231 cells were grown in DMEM Medium supplemented with 10% FBS. 100 μg/ml penicillin and 100 μg/ml streptomycin were added to the culture medium. […] 25 μl of Caspase-Glo 3/7 Assay Reagent was added to each well and incubated at 37° C., 5% CO2 for 1 hour. Luminescence for each sample well on the plate was measured by Envision 2104 Multilabel Reader (PerkinElmer, Santa Clara, Calif.). Activity was calculated relative to DMSO control.

MDA-MB-231 cells [2] = experiment: Cell viability, MTS assay in MDA-MB-231 cells; assay type: cell-based, human
Procedure: Test compounds and reference compound staurosporine (Selleckchem) were all dissolved with DMSO at 10 mM stock. […] Activity was calculated relative to DMSO control. […] Cell viability was 3% of the DMSO control value for Staurosporine (10 μM).

MCF-7 cells = experiment: Cell viability, MTS assay in MCF-7 cells
Procedure: Peptides and reference compound staurosporine (Selleckchem) were dissolved with DMSO at 10 mM stock. CellTiter 96@ AQueous One Solution Reagent (MTS assay reagent) was purchased from Promega (Madison, Wis.). MCF-7 human breast cancer cell line was purchased from American Type Culture Collection (Manassas, Va.). MCF-7 cells were grown in EMEM Medium supplemented with 10% FBS and 0.01 mg/ml human recombinant insulin. 100 μg/ml penicillin and 100 μg/ml streptomycin were added to the culture medium. Cells were incubated with test peptides at 10 μM at 37° C. in a humidified atmosphere of 5% CO2 and 95% air for 72 hours. 5 μl of CellTiter 96@ AQueous One Solution Reagent (MTS assay reagent) was added to each well and incubated at 37° C., 5% CO2 for 5 hours. Absorbance at 492 nm was recorded by Envision 2104 Multilabel Reader. Treatment with DMSO alone was used as the cell viability activity control. The relative standard deviation of the DMSO control was 3%.

3T3-L1 mouse adipocytes [3] = experiment: Free fatty acid levels in 3T3-L1 mouse adipocytes (Example 12, 10 μM); assay type: cell-based; conditions: insulin 100 nM, positive control
Procedure: The effect of the peptides on fatty acid metabolism can be assessed using an assay of free fatty acid levels in cultured cells such as mouse adipocytes. Peptides were initially prepared as 10 mM stock in DMSO, diluted to 1 mM in H2O, and used at a final concentration of 10 μM (0.1% DMSO). […] Insulin at 100 nM was added to control wells.

H4-IIE cells = experiment: Glucose production in cultured H4-IIE cells and insulin dependence; assay type: cell-based, rat; conditions: insulin 800 μM, modest inhibitor control
Procedure: The effect of the peptides on glucose homeostasis can be assessed using an assay to monitor glucose production by cultured cells such as rat hepatocytes. […] Following 24 h incubation, conditioned medium from each well was transferred to a fresh 96-well plate. Glucose concentrations in the medium were determined using a Glucose Assay kit (Abcam; Cambridge, Mass.) according to the manufacturer's instructions; absorbance measured using a Cytation 3 plate reader at 570 nm (BioTek, Winooski, Vt.). […] Untreated cells were used as reference for maximal glucose production. […] Insulin at 800 μM was used as a modest inhibitor glucose production. […] Data are presented as averages values from 2-4 independent experiments with each data point performed in triplicate.

3T3-L1 mouse adipocytes [4] = experiment: Free fatty acid levels in cultured 3T3-L1 mouse adipocytes and insulin dependence (Example 17); assay type: cell-based; conditions: insulin 10 nM, positive control
Procedure: The effect of the peptides on fatty acid metabolism can be assessed using an assay to monitor free fatty acid levels produced by cultured cells such as mouse adipocytes. […] Following 3 h incubation, conditioned medium from each well was transferred to a fresh 96-well plate. […] Absorbance values were expressed as percent control activity relative to 0.1 nM isoproterenol treated cells (no insulin) for 10 μM peptide alone or 0.25 nM insulin treated cells (with insulin) for 10 μM peptide in presence of 0.25 nM insulin. […] Data are presented as averages values from 2-3 independent experiments with each data point performed in triplicate.

[5] = 5 mg/kg/dose BID intraperitoneal, 8 days
[6] = 5 mg/kg/dose QD intraperitoneal, 10 days
[7] = staurosporine 10 μM, positive control

5 (RRIIGIVFQCLC) [compound 5] was tested. Which “Free Fatty Acid Levels, Percent of Control Value” (“Free Fatty Acid Levels, Percent” for short) (3T3-L1 adipocytes) did it give?
Its value is 115%.

For “RRMMGMVFQCLCG(dA) (RRMMGMVFQCLCG[dA]; cysteine pairing not given here) [SEQ ID NO: 8]”, which “Difference from Vehicle Control: Decrease from Baseline in Blood Glucose” value (Male DIO mice; [5]) is on record?
The value was -14.3 mg/dL.

And the “Difference from Vehicle Control: Decrease from Baseline in Body Weight” value (Male DIO mice; [5])?
The value was −5.66%.

What about the “Difference from Vehicle Control: Decrease from Baseline in Fat Mass” value (Male DIO mice; [5]) of the same compound?
The value was -2.15 g.

Which results are given for “RRMMGMVFQSLCG(dA) (RRMMGMVFQSLCG[dA]) [SEQ ID NO: 15]”?
Difference from Vehicle Control: Decrease from Baseline in Blood Glucose (Male DIO mice; [6]): -3.38 mg/dL; Difference from Vehicle Control: Decrease from Baseline in Body Weight (Male DIO mice; [6]): −4.97%; Difference from Vehicle Control: Decrease from Baseline in Fat Mass (Male DIO mice; [6]): -2.19 g

How did the “Difference from Vehicle Control: Decrease from Baseline in Blood Glucose” value (Male DIO mice; [6]) turn out when “(PEG12)KRRIIGIVFQCLCG(dA) ([PEG12(3)]KRRIIGIVFQCLCG[dA]; cysteine pairing not given here) [SEQ ID NO: 42]” was run?
The value was -10.7 mg/dL.

What about the “Difference from Vehicle Control: Decrease from Baseline in Body Weight” value (Male DIO mice; [6]) of the same compound?
The value was −2.94%.

CN[C@@H]1C[C@H]2O[C@@](C)([C@@H]1OC)n1c3ccccc3c3c4c(c5c6ccccc6n2c5c31)C(=O)NC4 [staurosporine, reference compound] was tested. Which “Caspase 3/7 activity, % of background-corrected DMSO control value” (C2C12 cells) did it give?
Its value is 670%.

What about the “Caspase activity, % of background-corrected DMSO control value” (MDA-MB-231 cells [1]; staurosporine 0.05 nM, positive control) of the same compound?
Its value is 130%.

And the “Cell viability, % of DMSO control value” (MDA-MB-231 cells [2]; [7])?
The value was 3%.

And the “Cell viability, % of background corrected DMSO control value” (MCF-7 cells; [7])?
Its value is less than 5%.

Which “Free Fatty Acid Levels, Percent” value (3T3-L1 adipocytes) does the source give for 4 (RRIIGIVFQCLCG) [compound 4] here?
The value was 100%.

With “(PEG12)KRRMMGMVFQCLCG(dA) (KRRMMGMVFQCLCGA; N-terminal PEG12; C-terminal D-alanine; (1)..(1) PEG12; (15)..(15) d-Ala) [SEQ ID NO: 20]” as the compound, how does the “Difference from Vehicle Control: Decrease from Baseline in Blood Glucose” value (Male DIO mice; [6]) read?
Its value is -0.75 mg/dL.

And the “Difference from Vehicle Control: Decrease from Baseline in Body Weight” value (Male DIO mice; [6])?
The value was −3.59%.

What about the “Difference from Vehicle Control: Decrease from Baseline in Fat Mass” value (Male DIO mice; [6]) of the same compound?
The value was -1.78 g.

How did the “Caspase 3/7 Activity, Percent of Control Activity” value (MDA-MB-231 cells [1]; peptide 10 μM, 18 hours, relative to DMSO control) turn out when 2 (MRRIIGIVFQCLCGL) [compound 2] was run?
The value was 62%.

And the “Free Fatty Acid Levels, Percent” value (3T3-L1 adipocytes)?
Its value is 97%.

And the “MTS Assay, Percent of Control Activity” value (MDA-MB-231 cells [2]; 72 hours, relative to DMSO control, concentration not given)?
The value was 79%.

And the “MTS Assay, Percent of Control Activity” value (MCF-7 cells; peptide 10 μM, 72 hours, relative to DMSO control)?
The value was 67%.

With 3 (RRIIGIVFQCLCGL) [compound 3] as the compound, how does the “Free Fatty Acid Levels, Percent” value (3T3-L1 adipocytes) read?
The value was 89%.

How did the “Difference from Vehicle Control: Decrease from Baseline in Blood Glucose” value (Male DIO mice; [6]) turn out when “RRMMGMVEQSLCG(dA) (RRMMGMVEQSLCG[dA]) [SEQ ID NO: 38]” was run?
Its value is -24.1 mg/dL.

What about the “Difference from Vehicle Control: Decrease from Baseline in Body Weight” value (Male DIO mice; [6]) of the same compound?
The value was −3.12%.

For insulin [reference compound], which “Free fatty acid levels, % of isoproterenol control value” (from here on “Free fatty acid levels, %”) (3T3-L1 mouse adipocytes [3]) is on record?
Its value is less than 5%.

What about the “Glucose levels, % of untreated control value” (H4-IIE cells) of the same compound?
Its value is 20-50%.

And the “Free fatty acid levels, %” value (3T3-L1 adipocytes; insulin 100 nM, positive control)?
Its value is less than 5%.

What about the “Free fatty acid levels, %” value (3T3-L1 mouse adipocytes [4]) of the same compound?
Its value is less than 5%.

From patent US20220324909A1, “THERAPEUTIC PEPTIDES” (COHBAR, INC., priority 2019, published 2022)
